# System: male C57BL/6J mice
# Experiment: fast-refeed (refeeding) assay, food intake
# Type: in vivo
# Description: Food is removed at 6 pm for an overnight (˜16 hour) fast. Beginning at 10 am on the next morning, mice are administered with either vehicle (e.g., saline+acetic acid, pH=5) or the compound of interest. Mice are then returned to their home cages and pre-weighed food (approximately 90 grams) is immediately returned to the food hoppers in each cage. The weight of the food remaining in the food hoppers is measured at 30 minutes, 1 hour, 2 hours, and 4 hours post compound/vehicle administration. Final body weights are then recorded for the mice.
# Animals: For this particular experiment, male C57BL/6J mice (Vendor: Taconic; Age: 7 weeks; Weight Range: 19-25 g) were used. The animals were housed individually during acclimation to facility (3-5 days) and throughout the study. […]
# • Mice were weighed and sorted into groups based on Body Weight. • Food was removed at 6 pm for an overnight (˜16 hour) fast. […] After injections mice were returned to their home cages. • Following each injection, pre-weighed food was immediately returned to the food hoppers. • Note: food was weighed the morning injections were administered. • Mouse weighed • Food weighed (approx. 90 g) • Mouse injected • Pre-weighed food returned to hopper • Food Weights were measured at 30 min, 1 hr, 2 hr, and 4 hrs post injection. • Final body weights were recorded and mice were euthanized via CO2 asphyxiation.
substance,measurement,value
substance P,feeding activity of mice in the fast refeed assay,alters feeding activity

# Reference: patent US7897765B2, “Therapeutic compounds and uses thereof” (Elixir Pharmaceuticals, Inc., priority 2003, dated 2011)
